# Source: patent US20250263424A1, “KRAS INHIBITORS” (Bristol-Myers Squibb Company, priority 2022, published 2025)
# Molecular target: Recombinant GMPPNP-loaded KRAS G12C (KRAS-G12C(ON), active form) (Homo sapiens, UniProt P01116, G12C)
# Assay: KRAS G12C RAF Disruption Assay (HTRF)
# Assay type: biochemical
# Conditions: GMPPNP-loaded KRAS G12C 5 nM, GST-RAF1 RBD 9 nM, values given in μM, read-out: KRASG12C RAF Disruption Assay (IC50)
# Protocol: This is a functional assay that measures activity of compounds against […]., the active form of KRAS G12C. Recombinant GMPPNP-loaded KRAS G12C (5 nM) was treated with compound at room temperature for 20 minutes in assay buffer (50 mM Tris pH 7.5, 100 mM NaCl, 1 mM MgCl2, 1 mM DTT, 100 μg/ml BSA). Recombinant GST-RAF1 RBD (9 nM) was added, and the reaction mixture was incubated for 20 minutes. SA-Tb (0.25 nM) was added, and the reaction mixture was incubated for 3 hours. HTRF signal was measured (PerkinElmer Envision), the signal ratio (λem 520/λem 495) was calculated, and IC50 values were calculated from the dose-response curve.
# Recombinant GMPPNP-loaded KRAS G12C (KRAS-G12C(ON), active form), sequence (P01116 1-188 isoform P01116-2 G12C): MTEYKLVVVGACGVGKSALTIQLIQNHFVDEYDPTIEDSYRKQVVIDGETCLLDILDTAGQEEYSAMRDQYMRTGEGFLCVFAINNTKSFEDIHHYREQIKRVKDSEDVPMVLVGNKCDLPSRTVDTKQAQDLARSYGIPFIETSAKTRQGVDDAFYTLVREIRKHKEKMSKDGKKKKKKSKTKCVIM
row,IC50 [µM],Structure (SMILES)
1,2.59,"Cc1cc(N)nc(-c2c(Cl)cc3c(N4C[C@]5(NC(=O)/C(F)=C/c6nccs6)CC[C@H]4C5)nc(OC[C@@H]4CCCN4C)nc3c2F)c1C(F)(F)F (atropisomer, axis not shown; (M)) [Example 48, (2Z)-N-[(1S,4S)-2-[(7M)-7-[6-amino-4-methyl-3-(trifluoromethyl)pyridin-2-yl]-6-chloro-8-fluoro-2-{[(2S)-1-methylpyrrolidin-2-yl]methoxy}quinazolin-4-yl]-2-azabicyclo[2.2.1]heptan-4-yl]-2-fluoro-3-(thiazol-2-yl)prop-2-enamide]"
2,55.2,"Cc1cc(N)nc(-c2c(Cl)cc3c(N4CCC5C(CCN5C(=O)/C(F)=C/c5nccs5)C4)nc(OC[C@]45CCCN4C[C@H](F)C5)nc3c2F)c1C(F)(F)F (single isomer, unassigned) [Example 26, Isomer 2]"
3,4.2,"Cc1cc(N)nc(-c2c(Cl)cc3c(N4CCC5C(C4)CN5C(=O)/C(F)=C/c4nccs4)nc(OC[C@]45CCCN4C[C@H](F)C5)nc3c2F)c1C(F)(F)F (stereo partly drawn) [Example 16, (Z)-1-(3-((7M)-7-(6-amino-4-methyl-3-(trifluoromethyl)pyridin-2-yl)-6-chloro-8-fluoro-2-(((2R,7aR)-2-fluorotetrahydro-1H-pyrrolizin-7a(5H)-yl)methoxy)quinazolin-4-yl)-3,7-diazabicyclo[4.2.0]octan-7-yl)-2-fluoro-3-(thiazol-2-yl)prop-2-en-1-one]"
4,1.9,"Cc1cc(N)nc(-c2c(Cl)cc3c(N4CCC5(CN(C(=O)/C(F)=C/c6nccs6)C5)C4)nc(OC[C@@]45CCCN4C[C@H](F)C5)nc3c2F)c1C(F)(F)F (atropisomer, axis not shown; (M)) [Example 9, (Z)-1-(6-((7M)-7-(6-amino-4-methyl-3-(trifluoromethyl)pyridin-2-yl)-6-chloro-8-fluoro-2-(((2R,7aS)-2-fluorotetrahydro-1H-pyrrolizin-7a(5H)-yl)methoxy)quinazolin-4-yl)-2,6-diazaspiro[3.4]octan-2-yl)-2-fluoro-3-(thiazol-2-yl)prop-2-en-1-one]"

# Same assay, conditions: GMPPNP-loaded KRAS G12C 5 nM, GST-RAF1 RBD 9 nM, values in nM, read-out: KRASG12C RAF Disruption Assay (IC50)
row,IC50 [µM],Structure (SMILES)
1,61,COc1ccc(Cl)cc1-c1ccc2c(N3CCN(C(=O)/C(F)=C/c4cnccn4)[C@@H](CC#N)C3)nc(OC[C@@H]3CCCN3C)nc2c1F [Example 64]
2,0.011,"N#CC[C@H]1CN(c2nc(OC[C@@]34CCCN3C[C@H](F)C4)nc3c(F)c(-c4cc(O)cc5ccccc45)ccc23)CCN1C(=O)/C(F)=C/c1ncccn1 [Example 40, 2-((S)-4-(8-fluoro-2-(((2R,7aS)-2-fluorotetrahydro-1H-pyrrolizin-7a(5H)-yl)methoxy)-7-(3-hydroxynaphthalen-1-yl)quinazolin-4-yl)-1-((Z)-2-fluoro-3-(pyrimidin-2-yl)acryloyl)piperazin-2-yl)acetonitrile]"
3,0.13,CN1CCC[C@H]1COc1nc(N2CCN(C(=O)/C(F)=C/c3cccnn3)[C@@H](CC#N)C2)c2ccc(-c3c(O)cccc3F)c(F)c2n1 [Example 57]
4,0.35,"Cc1cc(N)nc(-c2c(Cl)cc3c(N4CCC(CNC(=O)C(F)=Cc5ccccn5)CC4)nc(OCC4CCCN4C)nc3c2F)c1C(F)(F)F [Example 44, (2Z)-N-({1-[(7M)-7-[6-amino-4-methyl-3-(trifluoromethyl)pyridin-2-yl]-6-chloro-8-fluoro-2-{[(2S)-1-methylpyrrolidin-2-yl]methoxy}quinazolin-4-yl]piperidin-4-yl}methyl)-2-fluoro-3-(pyridin-2-yl)prop-2-enamide]"
5,0.042,"C#Cc1cccc2cccc(-c3ccc4c(N5CCN(C(=O)/C(F)=C/c6cnccn6)[C@@H](CC#N)C5)nc(OC[C@@]56CCCN5C[C@H](F)C6)nc4c3F)c12 [Example 87, 2-((S)-4-(7-(8-ethynylnaphthalen-1-yl)-8-fluoro-2-(((2R,7aS)-2-fluorotetrahydro-1H-pyrrolizin-7a(5H)-yl)methoxy)quinazolin-4-yl)-1-((Z)-2-fluoro-3-(pyrazin-2-yl)acryloyl)piperazin-2-yl)acetonitrile]"
6,0.16,"Cc1ccc2[nH]ncc2c1-c1ccc2c(N3CCN(C(=O)/C(F)=C/c4nccs4)[C@@H](CC#N)C3)nc(OC[C@@H]3CCCN3C)nc2c1F [Example 51, 2-((2S)-1-((Z)-2-fluoro-3-(thiazol-2-yl)acryloyl)-4-(8-fluoro-7-(5-methyl-1H-indazol-4-yl)-2-(((S)-1-methylpyrrolidin-2-yl)methoxy)quinazolin-4-yl)piperazin-2-yl)acetonitrile]"
7,0.26,"CCc1cccc2cccc(-c3ccc4c(N5CCN(C(=O)/C(F)=C/c6ccccn6)[C@@H](CC#N)C5)nc(OC[C@@H]5CCCN5C)nc4c3F)c12 [Example 59, 2-((S)-4-(7-(8-ethylnaphthalen-1-yl)-8-fluoro-2-(((S)-1-methylpyrrolidin-2-yl)methoxy)quinazolin-4-yl)-1-((Z)-2-fluoro-3-(pyridin-2-yl)acryloyl)piperazin-2-yl)acetonitrile]"
8,0.0064,"C#Cc1c(F)ccc2cc(O)cc(-c3ccc4c(N5C[C@H]6CC[C@@H](C5)N6C(=O)/C(F)=C/c5ccccn5)nc(OC[C@]56CCC[C@H]5N(C)CCC6)nc4c3F)c12 [Example 27, (Z)-1-((1R,5S)-3-(7-(8-ethynyl-7-fluoro-3-hydroxynaphthalen-1-yl)-8-fluoro-2-(((4aS,7aR)-1-methyloctahydro-4aH-cyclopenta[b]pyridin-4a-yl)methoxy)quinazolin-4-yl)-3,8-diazabicyclo[3.2.1]octan-8-yl)-2-fluoro-3-(pyridin-2-yl)prop-2-en-1-one]"
9,9,"Cc1cc(N)nc(-c2c(Cl)cc3c(N4CC[C@@H]5CC[C@H](C4)N5C(=O)/C(F)=C/c4nccs4)nc(OC[C@@]45CCCN4C[C@H](F)C5)nc3c2F)c1C(F)(F)F [Example 71, (Z)-1-((1R,6S)-3-(7-(6-amino-4-methyl-3-(trifluoromethyl)pyridin-2-yl)-6-chloro-8-fluoro-2-(((2R,7aS)-2-fluorotetrahydro-1H-pyrrolizin-7a(5H)-yl)methoxy)quinazolin-4-yl)-3,9-diazabicyclo[4.2.1]nonan-9-yl)-2-fluoro-3-(thiazol-2-yl)prop-2-en-1-one]"
10,0.044,"C#Cc1cccc2cccc(-c3ccc4c(N5CCN(C(=O)/C(F)=C/c6nccs6)[C@@H](CC#N)C5)nc(OC[C@@]56CCCN5C[C@H](F)C6)nc4c3F)c12 [Example 86, 2-((S)-4-(7-(8-ethynylnaphthalen-1-yl)-8-fluoro-2-(((2R,7aS)-2-fluorotetrahydro-1H-pyrrolizin-7a(5H)-yl)methoxy)quinazolin-4-yl)-1-((Z)-2-fluoro-3-(thiazol-2-yl)acryloyl)piperazin-2-yl)acetonitrile]"
11,2.6,"Cc1cc(N)nc(-c2c(Cl)cc3c(N4C[C@]5(NC(=O)/C(F)=C/c6nccs6)CC[C@H]4C5)nc(OC[C@@H]4CCCN4C)nc3c2F)c1C(F)(F)F (atropisomer, axis not shown) [Example 69, (Z)-N-((1S,4S)-2-(7M-(6-amino-4-methyl-3-(trifluoromethyl)pyridin-2-yl)-6-chloro-8-fluoro-2-(((S)-1-methylpyrrolidin-2-yl)methoxy)quinazolin-4-yl)-2-azabicyclo[2.2.1]heptan-4-yl)-2-fluoro-3-(thiazol-2-yl)acrylamide]"
